Starred links: 1 amine or outer side, 2 acyl side, 3 side chain; linkers in the order of their positions; H or OH if unused. Positions of bridges follow the written chain, without caps; N, C: chain ends. Non-standard residues stand in square brackets, D forms with d. Residues, ends and D or L forms follow the SMILES beside them. ξ: configuration not given here. *: point of attachment. NH(CH2)3NH(O2Oc(DOTA)) = O=C(O)CN1CCN(CC(=O)O)CCN(CC(=O)NCCOCCOCC(=O)NCCCN*)CCN(CC(=O)O)CC1; NH(1-deoxy-D-glucityl) = OC[C@@H](O)[C@@H](O)[C@H](O)[C@@H](O)CN*; DOTA = O=C(O)CN1CCN(CC(=O)O)CCN(CC(=O)*)CCN(CC(=O)O)CC1; X43 = CCC(=O)Nc1cccc(C[C@H](N[*:1])C(=O)[*:2])c1; ξTrp(5-Me) = Cc1ccc2[nH]cc(CC(N)C(=O)O)c2c1; Phe(4-NH2) = Nc1ccc(C[C@H](N)C(=O)O)cc1; mXylylene = c1cc(C[*:1])cc(C[*:2])c1; X2 = O=C(CN1CCC(N[*:1])CC1)[*:2]; X60 = NC(=O)c1ccc(N2CC(N*)C2)cc1; tBuAla = CC(C)(C)C[C@H](N)C(=O)O; X53 = Cc1cc2cc(CN*)ccc2[nH]c1=O; Isonicotinoyl = O=C(c1ccncc1)*; Pen = CC(C)(S)[C@H](N)C(=O)O; X42 = c1ccc2cc(CN*)ccc2c1; Dab = NCC[C@H](N)C(=O)O; Hexanoyl = CCCCCC(=O)*; Bz = O=C(c1ccccc1)*; Sar = CNCC(=O)O

For one assay, the target named is T1, CAIX-expressing human HT-29 colorectal cancer cells (Homo sapiens, UniProt Q16790).
T1 construct: CAIX-expressing human HT-29 colorectal cancer cells; host or cells: HT-29 human colorectal cancer cells
The assay is described as follows: FACS binding assay (IC50 determination, competition with tracer 3BP-2776 or 3BP-4149).
Details: not given
The gist of the method: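 HT-29 cells in FACS buffer (PBS, 1% FCS) at 500.000 cells/ml were exposed to compounds competing with a labelled tracer, with biotinylated compounds detected by 1 μg/mL APC-streptavidin for 30 min on ice. APC/Cy5 median fluorescence was read by flow cytometry and IC50 derived by 4PL fit.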
In general terms: A flow cytometer gives signals particle by particle.
Take `CC(C)C[C@@H]1NC(=O)[C@H](Cc2ccc(NC(=O)c3ccccc3)cc2)NC(=O)[C@H](CC(=O)O)NC(=O)[C@H]2CCCN2C(=O)[C@H](CCC(=O)O)NC(=O)[C@@H](NC(=O)[C@H](Cc2ccc(O)cc2)NC(=O)[C@@H](NC(=O)CN2CCC(NC(=O)CN3CCN(CC(=O)O)CCN(CC(=O)O)CCN(CC(=O)O)CC3)CC2)C(C)C)CSCc2cccc(c2)CSC[C@@H](C(N)=O)NC(=O)[C@H](CO)NC(=O)[C@H](Cc2c[nH]c3ccccc23)NC(=O)[C@H]([C@@H](C)O)NC1=O` [3BP-4171] ({DOTA}-[X2]VYCE[dP]D[Phe(4-NH2)](Bz)LTWSC-NH2; linker 4-13 via mXylylene): the IC50 was in the range of 100 to 794 nM.

Staying with this assay, now noted: FACS binding assay, HT-29 cells, competition with tracer 3BP-2776 (10 nM, biotin-labeled), 4° C., 1 hour; read-out: pIC50 category (activity) (converted).
Take `CC(C)C[C@@H]1NC(=O)[C@H](Cc2c[nH]c3ccccc23)NC(=O)[C@H](CCC(=O)NC[C@H](O)[C@@H](O)[C@H](O)[C@H](O)CO)NC(=O)[C@H]2CCCN2C(=O)[C@H](CCC(=O)O)NC(=O)[C@@H](NC(=O)[C@H](Cc2ccc(O)cc2)NC(=O)[C@@H](NC(=O)CN2CCC(NC(=O)CN3CCN(CC(=O)O)CCN(CC(=O)O)CCN(CC(=O)O)CC3)CC2)C(C)C)CSCc2cccc(c2)CSC[C@@H](C(N)=O)NC(=O)[C@H](CO)NC(=O)[C@H](Cc2c[nH]c3ccccc23)NC(=O)[C@H]([C@@H](C)O)NC1=O` [3BP-4120, DOTA-APAc-Val-Tyr-[Cys(3MeBn)-Glu-pro-Glu(AGLU)-Trp-Leu-Thr-Trp-Ser-Cys]-NH2] ({DOTA}-[X2]VYCE[dP]E(NH(1-deoxy-D-glucityl))WLTWSC-NH2; linker 4-13 via mXylylene): the IC50 was 10 to 79.4 nM.

Take `CC(=O)N[C@H](C(=O)N[C@@H](Cc1ccc(O)cc1)C(=O)N[C@H]1CSCc2cccc(c2)CSC[C@@H](C(N)=O)NC(=O)[C@H](CO)NC(=O)[C@H](Cc2c[nH]c3ccccc23)NC(=O)[C@@H]2CC(=O)NCC[C@H](NC(=O)[C@H]3CCCN3C(=O)[C@H](CCC(=O)O)NC1=O)C(=O)N[C@@H](Cc1c[nH]c3ccccc13)C(=O)N[C@@H](CC(C)C)C(=O)N2)C(C)C` [3BP-4050] (Ac-VYCE[dP][Dab]WLDWSC-NH2; linker 3-12 via mXylylene; lactam 6-9): the IC50 is 100 to 794 nM.

In the case of `CC(C)C[C@@H]1NC(=O)[C@H](Cc2c[nH]c3ccccc23)NC(=O)[C@H](CCC(=O)NCc2ccc3ccccc3c2)NC(=O)[C@H]2CCCN2C(=O)[C@H](CCC(=O)O)NC(=O)[C@@H](NC(=O)[C@H](Cc2ccc(O)cc2)NC(=O)[C@@H](NC(=O)CN2CCC(NC(=O)CN3CCN(CC(=O)O)CCN(CC(=O)O)CCN(CC(=O)O)CC3)CC2)C(C)C)CSCc2cccc(c2)CSC[C@@H](C(N)=O)NC(=O)[C@H](CO)NC(=O)[C@H](Cc2c[nH]c3ccccc23)NC(=O)[C@H]([C@@H](C)O)NC1=O` [3BP-4215, DOTA-APAc-Val-Tyr-[Cys(3MeBn)-Glu-pro-Glu(NHMe2Nph)-Trp-Leu-Thr-Trp-Ser-Cys]-NH2] ({DOTA}-[X2]VYCE[dP]E(X42)WLTWSC-NH2; linker 4-13 via mXylylene), the IC50 was under 10 nM.

Consider `CCC(=O)Nc1cccc(C[C@@H]2NC(=O)[C@H](CC(=O)O)NC(=O)[C@H]3CCCN3C(=O)[C@H](CCC(=O)O)NC(=O)[C@@H](NC(=O)[C@H](Cc3ccc(O)cc3)NC(=O)[C@@H](NC(=O)CN3CCC(NC(=O)CN4CCN(CC(=O)O)CCN(CC(=O)O)CCN(CC(=O)O)CC4)CC3)C(C)C)CSCc3cccc(c3)CSC[C@@H](C(N)=O)NC(=O)[C@H](CO)NC(=O)[C@H](Cc3c[nH]c4ccccc34)NC(=O)[C@H]([C@@H](C)O)NC(=O)[C@H](CC(C)C)NC2=O)c1` [3BP-4235] ({DOTA}-[X2]VYCE[dP]D[X43]LTWSC-NH2; linker 4-13 via mXylylene), for which the IC50 was under 10 nM.

On to `CC(C)C[C@@H]1NC(=O)[C@H](Cc2ccc(NC(=O)c3ccncc3)cc2)NC(=O)[C@H](CC(=O)O)NC(=O)[C@H]2CCCN2C(=O)[C@H](CCC(=O)O)NC(=O)[C@@H](NC(=O)[C@H](Cc2ccc(O)cc2)NC(=O)[C@@H](NC(=O)CN2CCC(NC(=O)CN3CCN(CC(=O)O)CCN(CC(=O)O)CCN(CC(=O)O)CC3)CC2)C(C)C)CSCc2cccc(c2)CSC[C@@H](C(N)=O)NC(=O)[C@H](CO)NC(=O)[C@H](Cc2c[nH]c3ccccc23)NC(=O)[C@H]([C@@H](C)O)NC1=O` [3BP-4183] ({DOTA}-[X2]VYCE[dP]D[Phe(4-NH2)](Isonicotinoyl)LTWSC-NH2; linker 4-13 via mXylylene), for which the IC50 was 100 to 794 nM.

Still in this assay, the particulars now being: FACS binding assay, HT-29 cells, competition with tracer 3BP-4149 (3 nM, Cy5-labeled), 4° C., 1 hour; read-out: pIC50 category (activity) (converted).
As for `CC(C)C[C@@H]1NC(=O)[C@H](Cc2c[nH]c3ccccc23)NC(=O)[C@H](CCC(=O)NC2CN(c3ccc(C(N)=O)cc3)C2)NC(=O)[C@H]2CCCN2C(=O)[C@H](CCC(=O)O)NC(=O)[C@@H](NC(=O)[C@H](Cc2ccc(O)cc2)NC(=O)[C@@H](NC(=O)CN2CCC(NC(=O)CN3CCN(CC(=O)O)CCN(CC(=O)O)CCN(CC(=O)O)CC3)CC2)C(C)C)CSCc2cccc(c2)CSC[C@@H](C(N)=O)NC(=O)[C@H](CO)NC(=O)[C@H](Cc2c[nH]c3ccccc23)NC(=O)[C@H]([C@@H](C)O)NC1=O` [3BP-4388] ({DOTA}-[X2]VYCE[dP]E(X60)WLTWSC-NH2; linker 4-13 via mXylylene), the IC50 is 10 to 79.4 nM.

In the case of `Cc1cc2cc(CNC(=O)CC[C@@H]3NC(=O)[C@H]4CCCN4C(=O)[C@H](CCC(=O)O)NC(=O)[C@@H](NC(=O)[C@H](Cc4ccc(O)cc4)NC(=O)[C@@H](NC(=O)CN4CCC(NC(=O)CN5CCN(CC(=O)O)CCN(CC(=O)O)CCN(CC(=O)O)CC5)CC4)C(C)C)CSCc4cccc(c4)CSC[C@@H](C(N)=O)NC(=O)[C@H](CO)NC(=O)[C@H](Cc4c[nH]c5ccccc45)NC(=O)[C@H]([C@@H](C)O)NC(=O)[C@H](CC(C)C)NC(=O)[C@H](Cc4c[nH]c5ccccc45)NC3=O)ccc2[nH]c1=O` [3BP-4390] ({DOTA}-[X2]VYCE[dP]E(X53)WLTWSC-NH2; linker 4-13 via mXylylene), the IC50 was 10 to 79.4 nM.

Still in this assay, the particulars now being: FACS competition on HT-29 cells, Tracer ID 3BP-2776 (10 nM, biotin-labeled), 4° C., 1 hour; read-out: pIC50 category (activity) (converted).
With `CC(=O)N[C@H](C(=O)N[C@@H](Cc1ccc(O)cc1)C(=O)N[C@H]1CSCc2cccc(c2)CSC[C@@H](C(N)=O)NC(=O)[C@H](CCC(N)=O)NC(=O)[C@H](Cc2c[nH]c3ccccc23)NC(=O)[C@H]([C@@H](C)O)NC(=O)[C@H](CC(C)(C)C)NC(=O)[C@H](Cc2c[nH]c3ccccc23)NC(=O)[C@H](CC(=O)O)NC(=O)CNC(=O)[C@H](CCC(=O)O)NC1=O)C(C)C` [3BP-3065] (Ac-VYCEGDW[tBuAla]TWQC-NH2; linker 3-12 via mXylylene), the IC50 is under 10 nM.

With `CCCCCC(=O)N[C@H](C(=O)N[C@@H](Cc1ccc(O)cc1)C(=O)N[C@H]1CSCc2cccc(c2)CSC[C@@H](C(N)=O)NC(=O)[C@H](CCC(N)=O)NC(=O)[C@H](Cc2c[nH]c3ccccc23)NC(=O)[C@H]([C@@H](C)O)NC(=O)[C@H](CC(C)C)NC(=O)[C@H](Cc2c[nH]c3ccccc23)NC(=O)[C@H](CC(=O)O)NC(=O)CNC(=O)[C@H](CCC(=O)O)NC1=O)C(C)C` [3BP-3107] (Hexanoyl-VYCEGDWLTWQC-NH2; linker 3-12 via mXylylene), the IC50 was under 10 nM.

For `CC(=O)N[C@H](C(=O)N[C@@H](Cc1ccc(O)cc1)C(=O)N[C@H]1CSCc2cccc(c2)CSC[C@@H](C(N)=O)NC(=O)[C@H](CCC(N)=O)NC(=O)[C@H](Cc2c[nH]c3ccccc23)NC(=O)[C@H]([C@@H](C)O)NC(=O)[C@H](CC(C)C)NC(=O)C(Cc2c[nH]c3ccc(C)cc23)NC(=O)[C@H](CC(=O)O)NC(=O)CN(C)C(=O)[C@H](CCC(=O)O)NC1=O)C(C)C` (stereo partly drawn) [3BP-3290] (Ac-VYCE[Sar]D[ξTrp(5-Me)]LTWQC-NH2; linker 3-12 via mXylylene), the IC50 was under 10 nM.

As for `CC(=O)N[C@H](C(=O)N[C@@H](Cc1ccc(O)cc1)C(=O)N[C@H]1CSCc2cccc(c2)CSC[C@@H](C(N)=O)NC(=O)[C@H](CCC(N)=O)NC(=O)[C@H](Cc2c[nH]c3ccccc23)NC(=O)[C@H]([C@@H](C)O)NC(=O)[C@H](CC(C)C)NC(=O)[C@H](Cc2c[nH]c3ccccc23)NC(=O)[C@H](CC(=O)O)NC(=O)CNC(=O)[C@H](C)NC1=O)C(C)C` [3BP-3052] (Ac-VYCAGDWLTWQC-NH2; linker 3-12 via mXylylene), the IC50 is under 10 nM.

Regarding `CC(=O)N[C@H](C(=O)N[C@@H](Cc1ccc(O)cc1)C(=O)N[C@H]1CSCc2cccc(c2)CSC[C@@H](C(N)=O)NC(=O)[C@H](CCC(=O)NCCCNC(=O)COCCOCCNC(=O)CN2CCN(CC(=O)O)CCN(CC(=O)O)CCN(CC(=O)O)CC2)NC(=O)[C@H](Cc2c[nH]c3ccccc23)NC(=O)[C@H]([C@@H](C)O)NC(=O)[C@H](CC(C)C)NC(=O)[C@H](Cc2c[nH]c3ccccc23)NC(=O)[C@H](CC(=O)O)NC(=O)[C@H]2CCCN2C(=O)[C@H](CCC(=O)O)NC1=O)C(C)C` [3BP-3479] (Ac-VYCE[dP]DWLTWE(NH(CH2)3NH(O2Oc(DOTA)))C-NH2; linker 3-12 via mXylylene), the IC50 was under 10 nM.

On to `CC(=O)N[C@H](C(=O)N[C@@H](Cc1ccc(O)cc1)C(=O)N[C@H]1CSCc2cccc(c2)CSC(C)(C)[C@@H](C(N)=O)NC(=O)[C@H](CCC(N)=O)NC(=O)[C@H](Cc2c[nH]c3ccccc23)NC(=O)[C@H]([C@@H](C)O)NC(=O)[C@H](CC(C)C)NC(=O)[C@H](Cc2c[nH]c3ccccc23)NC(=O)[C@H](CC(=O)O)NC(=O)CNC(=O)[C@H](CCC(=O)O)NC1=O)C(C)C` [3BP-3064] (Ac-VYCEGDWLTWQ[Pen]-NH2; linker 3-12 via mXylylene), for which the IC50 was under 10 nM.

With `CC(=O)N[C@H](C(=O)N[C@@H](Cc1ccc(O)cc1)C(=O)N[C@H]1CSCc2cccc(c2)CSC(C)(C)[C@@H](C(N)=O)NC(=O)[C@H](C)NC(=O)[C@H](Cc2c[nH]c3ccccc23)NC(=O)[C@H]([C@@H](C)O)NC(=O)[C@H](CC(C)C)NC(=O)[C@H](Cc2c[nH]c3ccccc23)NC(=O)[C@H](CC(=O)O)NC(=O)[C@H]2CCCN2C(=O)[C@H](CCC(=O)O)NC1=O)C(C)C` [3BP-3492] (Ac-VYCE[dP]DWLTWA[Pen]-NH2; linker 3-12 via mXylylene), the IC50 was under 10 nM.

These data come from patent US20250339569A1, “CARBONIC ANHYDRASE IX LIGANDS” (priority 2021, published 2025).
